What was measured:
[1] = Solubility of optional additional components in non-aqueous solvents; assay type: physicochemical
Description: Additional ingredients were chosen for their compatibility with (e.g., miscibility in) 1,3 propanediol, 1,2 propanediol, and 1,3 butanediol.

[2] = most solvents; cited from earlier work
skin [3] = conditions: 4% HQ versus 5% Vitamin C; cited from earlier work
skin [4] = conditions: in vivo; cited from earlier work
[5] = Procedure: This example was reproduced.
All mixtures were heated to 85° C.

erythema (skin redness) = conditions: concentrations of 0.2%; cited from earlier work

**Q.** With COc1cc(CC(C(C)=O)C(C)=O)ccc1O [Acetyl zingerone] as the compound, how does the “solubility of acetyl zingerone” value ([1]; 0.5-1%, 1,3 propanediol, 1,2 propanediol and 1,3 butanediol) read?
**A.** The value was “readily soluble”.

**Q.** Which “concentration of AzA that can be solubilized” value ([1]; 1,3 propanediol) does the source give for O=C(O)CCCCCCCC(=O)O [AzA, Azelaic acid] here?
**A.** Its value is “up to 10%”.

**Q.** What about the “solubility of AzA in presence of hydroxyethyl urea” value ([1]; 1,3 propanediol) of the same compound?
**A.** The value was “slightly increased”.

**Q.** And the “AzA solubilized together with AA and U” value ([1]; with 10% AA, 5% U in a 1,3 propanediol base)?
**A.** The value was 7.5%.

**Q.** What about the “solubility of AzA” value [2] of the same compound?
**A.** Its value is “very poorly soluble”.

**Q.** With Oc1ccc(O)cc1 [HQ, hydroquinone] as the compound, how does the improvement (skin [3]) read?
**A.** The improvement was 93%.

**Q.** What about the side-effects (skin [3]) of the same compound?
**A.** Its side-effects is 68.7%.

**Q.** Which “concentration at which inhibition of transepidermal water loss is apparent” value (skin [4]) does the source give for CC(C)(CO)[C@@H](O)C(=O)NCCCO [Panthenol] here?
**A.** Its value is at least 1%.

**Q.** Which “maximum concentrations soluble before urea starts to precipitate (the ceiling)” value ([5]; ascorbic acid together with urea in propylene glycol, butylene glycol and propanediol) does the source give for NC(N)=O [U, urea] here?
**A.** Its value is 20%.

**Q.** Which degradation on heating [5] does the source give for O=C1O[C@H]([C@@H](O)CO)C(O)=C1O [ascorbic acid, L-ascorbic acid] here?
**A.** The degradation on heating was “showed signs of degradation”.

**Q.** And the improvement (skin [3])?
**A.** Its improvement is 62.5%.

**Q.** With CC1(C)[C@@H](O[C@H]2O[C@H](C(=O)O)[C@@H](O)[C@H](O)[C@H]2O[C@@H]2O[C@H](C(=O)O)[C@@H](O)[C@H](O)[C@H]2O)CC[C@]2(C)[C@H]3C(=O)C=C4[C@@H]5C[C@@](C)(C(=O)O)CC[C@]5(C)CC[C@@]4(C)[C@]3(C)CC[C@@H]12 [glycyrrhizic acid, Glycyrrhizic acid] as the compound, how does the “solubility of glycyrrhizic acid” value ([1]; 1,3-propanediol) read?
**A.** The value was “shows solubility”.

**Q.** Which solubility of madecassoside ([1]; concentration of 0.2%, 1,3 propanediol, 1,2 propanediol and 1,3 butanediol) does the source give for Madecassoside here?
**A.** The solubility of madecassoside was “soluble”.

**Q.** And the “reduction of erythema (skin redness), clinical data” value (erythema (skin redness))?
**A.** Its value is “desirable ability to reduce erythema”.
